Data from ChEMBL document CHEMBL1201862, “PubChem BioAssay data set” (2004).
Active and inactive are the calls of the source.

What was measured:
Vero [1] = experiment: West Nile virus CPE inhibition, SAR follow-up, cell-based, synthesized analogs (AID 2238); format: functional; details: Chlorocebus sabaeus
Vero [2] = experiment: West Nile virus cytopathic effect inhibition, cell-based (AID 2419); format: functional; details: Chlorocebus sabaeus
Vero [3] = experiment: West Nile virus antiviral activity, cell-based, CPE readout (AID 1621); format: functional; details: Chlorocebus sabaeus
[4] = A Cell Based Assay for the Identification of Probe candidate Compounds with Anti- Venezuelan Equine Encephalitis virus. [Related pubchem assays: 2409, 2419, 1621, 2238, 2405, 2024, 2065, 2402, 2414, 1635, 1650, 2244 ]; format: functional
Vero [5] = experiment: cytotoxicity of synthesized analogs in Vero 76, SAR follow-up, cytotoxicity control for West Nile virus antiviral project, Vero 76 cells (AID 2414); format: functional; details: Chlorocebus sabaeus
Vero [6] = experiment: Vero E6 cell cytotoxicity, SAR follow-up, cytotoxicity control for West Nile virus antiviral project, synthesized analogs (AID 2244); format: functional; details: Chlorocebus sabaeus
Vero [7] = experiment: cytotoxicity of synthesized analogs in Vero cells, SAR follow-up, cytotoxicity control for West Nile virus antiviral project, cell-based, set II (AID 2402); format: functional; details: Chlorocebus sabaeus
Mu-type opioid receptor = Mu-type opioid receptor (Homo sapiens, UniProt P35372); experiment: SAR Analysis of Antagonists of the MOR Receptor using an Image-Based Assay - Set 3. [Related pubchem assays (depositor defined):AID1777, AID1785, AID1786, AID1966, AID2133, AID2136, AID2284, AID2285, AID2420]; format: functional
Sequence of Mu-type opioid receptor (P35372 whole entry): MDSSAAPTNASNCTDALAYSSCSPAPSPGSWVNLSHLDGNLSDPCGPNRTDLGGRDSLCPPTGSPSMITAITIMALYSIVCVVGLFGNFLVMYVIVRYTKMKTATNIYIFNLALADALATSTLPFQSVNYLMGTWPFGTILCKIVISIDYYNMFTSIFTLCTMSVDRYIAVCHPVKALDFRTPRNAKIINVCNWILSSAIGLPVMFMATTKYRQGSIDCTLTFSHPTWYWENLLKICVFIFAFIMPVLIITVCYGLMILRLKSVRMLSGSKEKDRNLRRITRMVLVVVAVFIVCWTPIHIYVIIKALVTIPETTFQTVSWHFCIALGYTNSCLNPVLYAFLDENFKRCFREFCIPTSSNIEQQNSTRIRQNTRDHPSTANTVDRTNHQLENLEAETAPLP

[8] = biological target: T1, Kappa-type opioid receptor (Homo sapiens, UniProt P41145); experiment: SAR analysis of Antagonists of the Kappa Opioid Receptor (KOR) using an Image-Based Assay - Set 3. [Related pubchem assays (depositor defined):AID1777, AID1785]; format: functional
T1 sequence (P41145 whole entry): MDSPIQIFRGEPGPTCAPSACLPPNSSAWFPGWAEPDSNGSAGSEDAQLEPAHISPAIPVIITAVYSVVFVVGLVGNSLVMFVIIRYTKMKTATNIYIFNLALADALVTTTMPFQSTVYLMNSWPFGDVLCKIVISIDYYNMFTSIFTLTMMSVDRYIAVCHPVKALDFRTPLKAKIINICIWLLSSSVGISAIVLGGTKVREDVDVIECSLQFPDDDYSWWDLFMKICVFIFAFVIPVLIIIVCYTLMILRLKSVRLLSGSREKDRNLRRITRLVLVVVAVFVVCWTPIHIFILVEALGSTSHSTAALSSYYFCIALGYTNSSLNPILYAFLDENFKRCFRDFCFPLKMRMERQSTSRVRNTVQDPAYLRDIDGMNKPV

[9] = biological target: Delta-type opioid receptor (Homo sapiens, UniProt P41143); experiment: SAR Analysis of Antagonists of the DOR Receptor using an Image-Based Assay - Set 3. [Related pubchem assays (depositor defined):AID1777, AID1785]; format: functional;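 further: U2OS cells expressing DOR1 and beta-arrestin GFP stimulated with 100 nM SNC80; imaging of GFP-tagged beta-arrestin moving into spots after receptor activation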
Sequence of Delta-type opioid receptor (P41143 whole entry): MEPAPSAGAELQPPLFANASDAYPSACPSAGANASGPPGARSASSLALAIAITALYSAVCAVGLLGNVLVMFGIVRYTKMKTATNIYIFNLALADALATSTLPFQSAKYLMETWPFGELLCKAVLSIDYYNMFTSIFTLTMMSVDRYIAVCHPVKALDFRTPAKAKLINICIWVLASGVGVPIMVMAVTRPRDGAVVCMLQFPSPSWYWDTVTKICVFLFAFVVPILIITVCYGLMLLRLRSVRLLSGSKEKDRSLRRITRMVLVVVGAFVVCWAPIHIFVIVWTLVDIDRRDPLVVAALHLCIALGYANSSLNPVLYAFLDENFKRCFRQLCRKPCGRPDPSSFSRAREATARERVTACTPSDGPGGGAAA

[10] = biological target: T1, Kappa-type opioid receptor; experiment: SAR analysis of small molecule antagonists of the kappa opioid receptor via a luminescent beta-arrestin assay - Set 3. [Related pubchem assays (depositor defined):AID1777, AID1778, AID1785, AID1786, AID1966, AID2133, AID2136, AID2285, AID2495]; format: functional
[11] = biological target: T2, G-protein coupled receptor 35 (Homo sapiens, UniProt Q9HC97); experiment: SAR analysis of Antagonists of the GPR35 Receptor using an Image-Based Assay - Set 5. [Related pubchem assays (depositor defined):AID2058, AID2079]; format: functional
T2 sequence (Q9HC97 whole entry): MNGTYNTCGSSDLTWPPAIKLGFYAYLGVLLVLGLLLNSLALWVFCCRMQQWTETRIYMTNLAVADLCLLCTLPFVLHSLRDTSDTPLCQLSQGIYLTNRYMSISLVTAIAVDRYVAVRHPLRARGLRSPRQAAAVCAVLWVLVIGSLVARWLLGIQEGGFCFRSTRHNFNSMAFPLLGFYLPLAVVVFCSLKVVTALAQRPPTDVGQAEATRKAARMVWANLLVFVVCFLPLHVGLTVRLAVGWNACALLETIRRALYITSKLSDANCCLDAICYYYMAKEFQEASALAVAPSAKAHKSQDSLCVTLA

[12] = biological target: T2, G-protein coupled receptor 35; experiment: SAR Analysis for the identification of Selective Antagonists of ERK1/2 Activity in GPR35-Overexpressing U2OS Cells - Set 2. [Related pubchem assays (depositor defined):AID2058, AID2079]; format: functional, cell-based
[13] = biological target: G-protein coupled receptor 55 (Homo sapiens, UniProt Q9Y2T6); experiment: SAR Analysis of Selective Antagonists of GPR55 using an Image-Based Assay - Set 3. [Related pubchem assays (depositor defined):AID2058, AID2079]; format: functional
Sequence of G-protein coupled receptor 55 (Q9Y2T6 whole entry): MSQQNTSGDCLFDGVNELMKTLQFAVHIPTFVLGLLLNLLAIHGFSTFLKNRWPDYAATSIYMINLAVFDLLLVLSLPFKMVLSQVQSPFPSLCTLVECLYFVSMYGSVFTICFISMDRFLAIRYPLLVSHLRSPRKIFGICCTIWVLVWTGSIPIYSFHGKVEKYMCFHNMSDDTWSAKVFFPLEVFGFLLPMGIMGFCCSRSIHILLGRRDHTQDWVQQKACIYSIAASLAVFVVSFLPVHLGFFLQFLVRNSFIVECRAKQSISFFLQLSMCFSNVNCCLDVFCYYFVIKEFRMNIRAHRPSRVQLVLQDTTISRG

With CN(C)CCCN1c2ccc([N+](=O)[O-])cc2CCc2cc([N+](=O)[O-])ccc21 the IC50 (Vero [1]) was 13.9 µM (active), the IC50 (Vero [2]) was 11.4 µM (active) and the IC50 (Vero [3]) was 10.8 µM (active). The IC50 [4] was 8.59 µM (active), the CC50 (Vero [5]) was 18.5 µM (active) and the CC50 (Vero [6]) was 21.6 µM (active). The CC50 (Vero [7]) was 15.4 µM (active).
In the case of Cc1cccc(S(=O)(=O)NCc2ccc(C(=O)NCCN3Cc4ccccc4C3)cc2)c1, the IC50 (Mu-type opioid receptor) is reported as > 32 µM (inactive), the IC50 [8] is reported as > 32 µM (inactive) and the IC50 [9] is reported as > 32 µM (inactive). The IC50 [10] was > 20 µM (inactive).
With CNC(=S)N/N=C/c1c(C(=O)OC)cnn1-c1ccc(Cl)cc1 the IC50 [11] was 1.25 µM (active), the IC50 [12] was 4.11 µM (active) and the IC50 [13] was > 32 µM (inactive).
